Results from article PMC10311946 (ACS chemical biology, 2023).
Several values for one entry are separate records, joined by “and”; a condition that tells them apart may be missing. Equal entries are not always repeated. Entries after “also recorded” stand apart in the source; their conditions may differ. Where two headings read alike, the source gives them in different places.

Tests used:
FabH [1] = target: T1, FabH (Escherichia coli, UniProt P0A6R0); assay: continuous UV-Vis assay for the production of acetoacetyl-CoA; type: biochemical; details: for effect on FabH activity with acetyl-CoA and malonyl-CoA as substrates: UV-Vis assays
E. coli FabH = details: for Initial rate of hydrolysis to CoA or oxa(dethia)CoA / Initial rate, malonyl-CoA → acetyl-CoA/acetoacetyl-CoA: FabH wt, 10 μM FabH; for activating potential for FabH decarboxylation of malonyl-CoA to acetoacetyl-CoA: FabH incubated with 125 μM analog then 250 μM malonyl-CoA, HPLC progress curves; for time to reaction completion: FabH
citrate synthase = details: cited from earlier work
[2] = non-enzymatic stability/hydrolysis in buffer followed by HPLC; type: physicochemical; details: for Non-enzymatic hydrolysis rate: pH 6 and 7
phosphotransacetylase = details: cited from earlier work
FabH C112Q = type: biochemical, Escherichia coli; details: for Initial rate of hydrolysis to CoA or oxa(dethia)CoA / Initial rate, malonyl-CoA → acetyl-CoA/acetoacetyl-CoA: FabH C112Q, 10 μM enzyme; for stability with the FabH C112Q mutant: over 24 hours, 10 μM FabH C112Q
FabH [3] = target: T1, FabH; details: cited from earlier work
[4] = test system: fluoroacetyl-CoA hydrolase; details: cited from earlier work
[5] = competition with malonyl-CoA binding assumed, pH 8.0, 50 mM Mg2+
[6] = pH 6, ~250 μM substrate or analog
[7] = pH 7, ~250 μM substrate or analog
[8] = pH 8, ~250 μM substrate or analog
[9] = varying malonyl-CoA, acetyl-CoA at 125 μM, substrate inhibition model

T1 sequence (P0A6R0 whole entry): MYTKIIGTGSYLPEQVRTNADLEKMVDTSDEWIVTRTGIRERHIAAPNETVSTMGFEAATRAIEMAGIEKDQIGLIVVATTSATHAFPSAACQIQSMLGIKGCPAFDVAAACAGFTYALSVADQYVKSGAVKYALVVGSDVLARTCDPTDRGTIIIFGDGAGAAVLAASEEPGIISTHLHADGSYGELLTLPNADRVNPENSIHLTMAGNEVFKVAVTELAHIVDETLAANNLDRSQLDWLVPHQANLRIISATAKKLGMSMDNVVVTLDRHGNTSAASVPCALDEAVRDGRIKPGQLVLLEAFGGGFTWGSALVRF

Compound: CC(C)(COP(=O)(O)OP(=O)(O)OC[C@H]1O[C@@H](n2cnc3c(N)ncnc32)[C@H](O)[C@@H]1OP(=O)(O)O)[C@@H](O)C(=O)NCCC(=O)NCCS [CoA]
- Ki (FabH [1]; [5]): 150 ± 70 µM

Compound: CC(=O)SCCNC(=O)CCNC(=O)[C@H](O)C(C)(C)COP(=O)(O)OP(=O)(O)OC[C@H]1O[C@@H](n2cnc3c(N)ncnc32)[C@H](O)[C@@H]1OP(=O)(O)O [acetyl-CoA]
- Initial rate of hydrolysis to CoA or oxa(dethia)CoA (E. coli FabH; [6]): 0.0004 ± 0.0001 min⁻¹
- Initial rate of hydrolysis to CoA or oxa(dethia)CoA (E. coli FabH; [7]): 0.0010 ± 0.0001 min⁻¹
- Initial rate of hydrolysis to CoA or oxa(dethia)CoA (E. coli FabH; [8]): 0.0038 ± 0.0002 min⁻¹
- Km (FabH [1]; read-out: apparent Km, varying acetyl-CoA with 125 μM malonyl-CoA): 0.3 ± 0.1 µM
- Km (citrate synthase): 8.5 µM
- Non-enzymatic hydrolysis rate [2]: ~ 0.0004 min^−1
- Non-enzymatic hydrolysis rate at pH 8 relative to pH 6 and 7 [2]: ~ 10 times higher
- Km (phosphotransacetylase): 210 µM
- Initial rate of hydrolysis to CoA or oxa(dethia)CoA (FabH C112Q; [6]): 0.0005 ± 0.0001 min⁻¹
- Initial rate of hydrolysis to CoA or oxa(dethia)CoA (FabH C112Q; [7]): 0.0006 ± 0.0001 min⁻¹
- Initial rate of hydrolysis to CoA or oxa(dethia)CoA (FabH C112Q; [8]): 0.0030 ± 0.0001 min⁻¹
- transthiolation rate (FabH [3]): 0.05 s⁻¹
- Km (FabH [3]; read-out: apparent KM, pH 7.0, malonyl-S-ACP as acceptor ref 32, 35): 40 µM

Compound: CC(=O)OCCNC(=O)CCNC(=O)[C@H](O)C(C)(C)COP(=O)(O)OP(=O)(O)OC[C@H]1O[C@@H](n2cnc3c(N)ncnc32)[C@H](O)[C@@H]1OP(=O)(O)O [compound 1, acetyl-oxa(dethia)CoA]
- activating potential for FabH decarboxylation of malonyl-CoA to acetoacetyl-CoA (E. coli FabH): not strong activators
- Initial rate of hydrolysis to CoA or oxa(dethia)CoA (E. coli FabH; [8]): ~ 0.003 min^−1
- effect on FabH activity with acetyl-CoA and malonyl-CoA as substrates (FabH [1]): slightly activating; also recorded: did not find inhibition; also recorded: a couple percent activation
- Ki (FabH [1]; [5]): weak activation
- Initial rate of hydrolysis to CoA or oxa(dethia)CoA (FabH C112Q; [8]): ~ 0.001 min^−1

Compound: CC(=O)NCCNC(=O)CCNC(=O)[C@H](O)C(C)(C)COP(=O)(O)OP(=O)(O)OC[C@H]1O[C@@H](n2cnc3c(N)ncnc32)[C@H](O)[C@@H]1OP(=O)(O)O [compound 2, acetyl-aza(dethia)CoA]
- activating potential for FabH decarboxylation of malonyl-CoA to acetoacetyl-CoA (E. coli FabH): not strong activators
- effect on FabH activity with acetyl-CoA and malonyl-CoA as substrates (FabH [1]): moderate inhibitor
- Ki (FabH [1]; competition with malonyl-CoA binding assumed): 800 µM
- Ki (FabH [1]; [5]): 800 ± 100 µM
- Ki (citrate synthase): 1.6 µM
- Ki (phosphotransacetylase): 130 µM

Compound: CC(C)(COP(=O)(O)OP(=O)(O)OC[C@H]1O[C@@H](n2cnc3c(N)ncnc32)[C@H](O)[C@@H]1OP(=O)(O)O)[C@@H](O)C(=O)NCCC(=O)NCCOC(=O)CC(=O)O [compound 3, malonyl-oxa(dethia)CoA]
- Decarboxylation by FabH (E. coli FabH): not detected
- Initial rate of hydrolysis to CoA or oxa(dethia)CoA (E. coli FabH; [8]): ~ 0.001 min^−1
- Ki (FabH [1]; [5]): 800 ± 400 µM
- Decarboxylation by C112Q mutant (FabH C112Q): not detected
- Initial rate of hydrolysis to CoA or oxa(dethia)CoA (FabH C112Q; [8]): ~ 0.001 min^−1
- stability with the FabH C112Q mutant (FabH C112Q): relatively unreactive

Compound: CC(C)(COP(=O)(O)OP(=O)(O)OC[C@H]1O[C@@H](n2cnc3c(N)ncnc32)[C@H](O)[C@@H]1OP(=O)(O)O)[C@@H](O)C(=O)NCCC(=O)NCCNC(=O)CC(=O)O [compound 4, malonyl-aza(dethia)CoA]
- Ki (FabH [1]; [5]): 700 ± 300 µM
- stability with the FabH C112Q mutant (FabH C112Q): completely stable

Compound: CC(C)(COP(=O)(O)OP(=O)(O)OC[C@H]1O[C@@H](n2cnc3c(N)ncnc32)[C@H](O)[C@@H]1OP(=O)(O)O)[C@@H](O)C(=O)NCCC(=O)NCCO [compound 5, oxa(dethia)CoA]
- Ki (FabH [1]; [5]): 400 ± 200 µM

Compound: CC(C)(COP(=O)(O)OP(=O)(O)OC[C@H]1O[C@@H](n2cnc3c(N)ncnc32)[C@H](O)[C@@H]1OP(=O)(O)O)[C@@H](O)C(=O)NCCC(=O)NCCN [compound 6, aza(dethia)CoA]
- Ki (FabH [1]; [5]): 900 ± 400 µM

Compound: CC(C)(COP(=O)(O)OP(=O)(O)OC[C@H]1O[C@@H](n2cnc3c(N)ncnc32)[C@H](O)[C@@H]1OP(=O)(O)O)[C@@H](O)C(=O)NCCC(=O)NCCSC(=O)CF [fluoroacetyl-CoA]
- Km [4]: 8 µM

Compound: CC(C)(COP(=O)(O)OP(=O)(O)OCC1OC(n2cnc3c(N)ncnc32)C(O)C1OP(=O)(O)O)C(O)C(=O)NCCC(=O)NCCNC(=O)CF (stereo not drawn) [fluoroacetyl-aza(dethia)CoA]
- Kd [4]: 1700 µM

Compound: CC(C)(COP(=O)(O)OP(=O)(O)OC[C@H]1O[C@@H](n2cnc3c(N)ncnc32)[C@H](O)[C@@H]1OP(=O)(O)O)[C@@H](O)C(=O)NCCC(=O)NCCOC(=O)CF [fluoroacetyl-oxa(dethia)CoA]
- Kd [4]: 90 µM

Compound: CC(C)(COP(=O)(O)OP(=O)(O)OC[C@H]1O[C@@H](n2cnc3c(N)ncnc32)[C@H](O)[C@@H]1OP(=O)(O)O)[C@@H](O)C(=O)NCCC(=O)NCCSC(=O)CC(=O)O [malonyl-CoA]
- Initial rate, malonyl-CoA → acetyl-CoA/acetoacetyl-CoA (E. coli FabH; pH 7, ~250 μM substrate): biphasic
- Initial rate, malonyl-CoA → acetyl-CoA/acetoacetyl-CoA (E. coli FabH; pH 8, ~250 μM substrate, 25 μM acetyl-CoA to alleviate lag phase, value is for acetoacetyl-CoA appearance): 0.043 ± 0.001^‡ min^−1
- time to reaction completion (E. coli FabH; malonyl-CoA with priming acetyl-CoA (10% of malonyl-CoA)): about 250 min
- time to reaction completion (E. coli FabH; malonyl-CoA without priming acetyl-CoA (Figure 2J)): 620 min
- Ki (FabH [1]; read-out: Ki (substrate inhibition), varying malonyl-CoA, acetyl-CoA at 125 μM, substrate inhibition model): 1900 ± 600 µM
- Km (FabH [1]; [9]): 2500 µM and ~2500 µM
- kcat (FabH [1]; [9]): 0.0983 ± 0.0233 s⁻¹
- Non-enzymatic hydrolysis rate [2]: ~ 0.0004 min^−1
- Non-enzymatic hydrolysis rate at pH 8 relative to pH 6 and 7 [2]: ~ 10 times higher
- FabH C112Q decarboxylation relative to activated wild-type in the absence of acetyl-CoA (FabH C112Q): 5 times faster
- Initial rate of hydrolysis to CoA or oxa(dethia)CoA (FabH C112Q; [6]): 0.0005 ± 0.0001 min⁻¹
- Initial rate, malonyl-CoA → acetyl-CoA/acetoacetyl-CoA (FabH C112Q; pH 6, ~250 μM substrate): 0.0060 ± 0.0006 min⁻¹
- Initial rate of hydrolysis to CoA or oxa(dethia)CoA (FabH C112Q; [7]): 0.0007 ± 0.0001 min⁻¹
- Initial rate, malonyl-CoA → acetyl-CoA/acetoacetyl-CoA (FabH C112Q; pH 7, ~250 μM substrate): 0.18 ± 0.01 min⁻¹
- Initial rate of hydrolysis to CoA or oxa(dethia)CoA (FabH C112Q; [8]): 0.0032 ± 0.0005 min⁻¹
- Initial rate, malonyl-CoA → acetyl-CoA/acetoacetyl-CoA (FabH C112Q; pH 8, ~250 μM substrate): 0.20 ± 0.02 min⁻¹
